Data reported in patent US20080194585A1, “Fungicidal Pyrazine Derivatives” (priority 2005, published 2008).
Marks after values point to notes of the source that are not given here.

Tests used:
[1] = system: Puccinia recondita f. sp. tritici; assay: Test K: wheat leaf rust, preventive spray on wheat seedlings
Septoria nodorum = assay: Test H: wheat glum blotch, preventive spray on wheat seedlings
Protocol: (the causal agent of wheat glum blotch) and incubated in a saturated atmosphere at 20° C. for 48 h, and then moved to a growth chamber at 22° C. for 5 days, after which disease ratings were made.

fusarium graminearium = assay: Test I: wheat head scab, preventive spray on wheat seedlings; details: for Test I disease control rating: 200 ppm
Protocol: (the causal agent of wheat head scab) and incubated in a saturated atmosphere at 20° C. for 72 h, and then moved to a growth chamber at 22° C. for 5 days, after which disease ratings were made.

Botrytis cinerea = assay: Test E: tomato botrytis, preventive spray on tomato seedlings
Plasmopara viticola = assay: Test D: grape downy mildew, spray after inoculation of grape seedlings; format: in vivo; details: 200 ppm
Source text: Upon removal, disease ratings were made. […] A dash (-) indicates no test results.

Sclerotinia sclerotiorum = assay: Test C: cucumber white mold, preventive spray on cucumber seedlings; details: 200 ppm
Phytophthora infestans = assay: whole plant or invertebrate; format: in vivo; details: for Test F disease control rating: 200 ppm
[2] = system: Erysiphe graminis f. sp. tritici; assay: Test L: wheat powdery mildew, preventive spray on wheat seedlings
Pythium aphanidermatum = assay: Test A: bluegrass pythium blight, preventive spray on bluegrass seedlings; details: for Test A disease control rating: 200 ppm
[3] = system: Colletotrichum orbiculare; assay: Test B: cucumber Colletotrichum anthracnose, preventive spray on cucumber seedlings
Septoria tritici = assay: Test J: wheat leaf blotch, preventive spray on wheat seedlings; format: in vivo
Source text: A dash (-) indicates no test results.

Rhizoctonia oryzae = assay: Test G: turf brown patch, preventive spray on creeping bent grass seedlings
Protocol: (the causal agent of turf brown patch) and incubated in a saturated atmosphere at 27° C. for 24 h, and then moved to a growth chamber at 27° C. for 5 days, after which disease ratings were made.

[4] = 100 = 100% disease control, 0 = no control
[5] = 40 ppm (marked *), 100 = 100% disease control, 0 = no control

SMILES: CC(C)Cn1c(-c2ccc(F)cc2Cl)c(Cl)nc(-n2cccn2)c1=O [Compound 302, 5-Chloro-6-(2-chloro-4-fluorophenyl)-1-(2-methylpropyl)-3-(1H-pyrazol-1-yl)-2(1H)-pyrazinone]
- pest or weed control at 40 ppm ([1]; Puccinia recondita, in Triticum aestivum, 192 h, read-out: Test K disease control rating): 100%
- pest or weed control at 40 ppm (Septoria nodorum; Parastagonospora nodorum, in Triticum aestivum, topical, 168 h, read-out: Test H disease control rating, 40 ppm (marked *), 100 = 100% disease control, 0 = no control): 99%
- pest or weed control at 200 ppm (fusarium graminearium; Fusarium, in Triticum aestivum, topical, 192 h, read-out: Test I disease control rating, 200 ppm, 100 = 100% disease control, 0 = no control): 0%
- pest or weed control at 40 ppm (Botrytis cinerea; Botrytis cinerea, in Solanum lycopersicum, topical, 72 h, read-out: Test E disease control rating): 100%
- Test D disease control rating (Plasmopara viticola; [4]): 0%
- Test C disease control rating (Sclerotinia sclerotiorum; [4]): 60%
- pest or weed control at 200 ppm (Phytophthora infestans; Phytophthora infestans, in Solanum lycopersicum, topical, 144 h, read-out: Test F disease control rating): 0%
- pest or weed control at 40 ppm ([2]; Blumeria graminis, in Triticum aestivum, 168 h, read-out: Test L disease control rating, 40 ppm (marked *), 100 = 100% disease control, 0 = no control): 98%
- pest or weed control at 200 ppm (Pythium aphanidermatum; Pythium aphanidermatum, 120 h, read-out: Test A disease control rating): 0%
- pest or weed control at 40 ppm ([3]; Colletotrichum orbiculare, in Cucumis sativus, 144 h, read-out: Test B disease control rating, 40 ppm (marked *), 100 = 100% disease control, 0 = no control): 98%
- pest or weed control at 40 ppm (Septoria tritici; Zymoseptoria tritici, 528 h, 40 ppm (marked *), 100 = 100% disease control, 0 = no control, read-out: Test J disease control rating): 100%
- pest or weed control at 40 ppm (Rhizoctonia oryzae; Waitea circinata, in Agrostis stolonifera, topical, 144 h, read-out: Test G disease control rating, 40 ppm (marked *), 100 = 100% disease control, 0 = no control): 94%

SMILES: CC(C)Cn1c(-c2ccc(F)cc2Cl)c(Cl)nc(-n2cccn2)c1=O [Compound 303, 5-Chloro-6-(2-chloro-4-fluorophenyl)-1-(2-methylpropyl)-3-(1H-pyrazol-1-yl)-2(1H)-pyrazinone]
- Test K disease control rating [1, 5]: 100* %
- Test H disease control rating (Septoria nodorum; [5]): 100* %
- Test I disease control rating (fusarium graminearium; [4]): 0%
- Test E disease control rating (Botrytis cinerea; [5]): 100* %
- Test D disease control rating (Plasmopara viticola; [4]): 58%
- Test C disease control rating (Sclerotinia sclerotiorum; [4]): 94%
- Test F disease control rating (Phytophthora infestans; [4]): 0%
- Test L disease control rating [2, 5]: 100* %
- Test A disease control rating (Pythium aphanidermatum; [4]): 0%
- Test B disease control rating [3, 5]: 100* %
- Test J disease control rating (Septoria tritici; [5]): 100* %
- Test G disease control rating (Rhizoctonia oryzae; [5]): 100* %

SMILES: CC(C)Cn1c(-c2c(F)cc(F)cc2F)c(Cl)nc(-n2cccn2)c1=O [compound 7]
- Test K disease control rating ([1]; 200 ppm): 100%
- Test H disease control rating (Septoria nodorum; 200 ppm): 100%
- Test I disease control rating (fusarium graminearium): 99%
- Test E disease control rating (Botrytis cinerea; 200 ppm): 100%
- Test D disease control rating (Plasmopara viticola): 88%
- Test C disease control rating (Sclerotinia sclerotiorum): 95%
- Test F disease control rating (Phytophthora infestans): 0%
- Test L disease control rating ([2]; 200 ppm): 100%
- Test A disease control rating (Pythium aphanidermatum): 51%
- Test B disease control rating ([3]; 200 ppm): 100%
- Test J disease control rating (Septoria tritici; 200 ppm): 100%
- Test G disease control rating (Rhizoctonia oryzae; 200 ppm): 95%

SMILES: O=c1c(-n2cccn2)nc(Cl)c(-c2c(F)cccc2F)n1CC1CC1 [compound 18]
- Test K disease control rating ([1]; 200 ppm): 100%
- Test H disease control rating (Septoria nodorum; 200 ppm): 100%
- Test I disease control rating (fusarium graminearium): 0%
- Test E disease control rating (Botrytis cinerea; 200 ppm): 100%
- Test D disease control rating (Plasmopara viticola): 98%
- Test C disease control rating (Sclerotinia sclerotiorum): 99%
- Test F disease control rating (Phytophthora infestans): 0%
- Test L disease control rating ([2]; 200 ppm): 100%
- Test A disease control rating (Pythium aphanidermatum): 0%
- Test B disease control rating ([3]; 200 ppm): 100%
- Test J disease control rating (Septoria tritici; 200 ppm): 100%
- Test G disease control rating (Rhizoctonia oryzae; 200 ppm): 100%

SMILES: CCC(C)Cn1c(-c2c(F)cc(F)cc2F)c(Cl)nc(-n2cccn2)c1=O (stereo not drawn) [compound 19]
- Test K disease control rating ([1]; 200 ppm): 100%
- Test H disease control rating (Septoria nodorum; 200 ppm): 100%
- Test I disease control rating (fusarium graminearium): 90%
- Test E disease control rating (Botrytis cinerea; 200 ppm): 100%
- Test D disease control rating (Plasmopara viticola): 46%
- Test C disease control rating (Sclerotinia sclerotiorum): 98%
- Test F disease control rating (Phytophthora infestans): 27%
- Test L disease control rating ([2]; 200 ppm): 100%
- Test A disease control rating (Pythium aphanidermatum): 0%
- Test B disease control rating ([3]; 200 ppm): 100%
- Test J disease control rating (Septoria tritici; 200 ppm): 100%
- Test G disease control rating (Rhizoctonia oryzae; 200 ppm): 100%

SMILES: CC(C)Cn1c(-c2ccc(Cl)cc2)c(Cl)nc(-n2cncn2)c1=O [compound 23]
- Test K disease control rating ([1]; 200 ppm): 68%
- Test H disease control rating (Septoria nodorum; 200 ppm): 98%
- Test I disease control rating (fusarium graminearium): 68%
- Test E disease control rating (Botrytis cinerea; 200 ppm): 99%
- Test D disease control rating (Plasmopara viticola): 0%
- Test C disease control rating (Sclerotinia sclerotiorum): 0%
- Test F disease control rating (Phytophthora infestans): 0%
- Test L disease control rating ([2]; 200 ppm): 0%
- Test A disease control rating (Pythium aphanidermatum): 0%
- Test B disease control rating ([3]; 200 ppm): 21%
- Test J disease control rating (Septoria tritici; 200 ppm): 98%
- Test G disease control rating (Rhizoctonia oryzae; 200 ppm): 33%

SMILES: Cc1nc(C)n(-c2nc(Cl)c(-c3ccc(Cl)cc3)n(CC(C)C)c2=O)n1 [compound 24]
- Test K disease control rating ([1]; 200 ppm): 0%
- Test H disease control rating (Septoria nodorum; 200 ppm): 0%
- Test I disease control rating (fusarium graminearium): 0%
- Test E disease control rating (Botrytis cinerea; 200 ppm): 0%
- Test D disease control rating (Plasmopara viticola): 5%
- Test C disease control rating (Sclerotinia sclerotiorum): 0%
- Test F disease control rating (Phytophthora infestans): 0%
- Test L disease control rating ([2]; 200 ppm): 0%
- Test A disease control rating (Pythium aphanidermatum): 0%
- Test B disease control rating ([3]; 200 ppm): 0%
- Test J disease control rating (Septoria tritici; 200 ppm): 80%
- Test G disease control rating (Rhizoctonia oryzae; 200 ppm): 0%
